From patent US12258338B2, “Modulators of the integrated stress response pathway” (EVOTEC INTERNATIONAL GMBH, priority 2019, dated 2025) come the findings set out here.

The target of experiment [1] is T1, human ERG potassium channel (hERG) (Homo sapiens, UniProt Q12809).
T1 construct: expressed in transfected cells; host or cells: HEK293, stably transfected, tetracycline-inducible promoter
Kind of experiment: hERG channel tail current recording using in vitro Rapid ICE (automated patch-clamp, QPatch HTX). The following applies: Table 26. The experiment is classed as cell-based. As to the method:
Protocol—Measure of the Effect on hERG Channel by Tail Current Recording Using In Vitro Rapid ICE
The potency of the example compounds in inhibiting human ERG potassium channel (hERG) tail current was assessed in a recombinant HEK293 cell line stably transfected with hERG cDNA under an inducible promoter, using Rapid ICE (rapid ion channel electrophysiology) assay. Rapid ICE is an automated patch-clamp assay utilizing the QPatch HTX system (Sophion Bioscience A/S). Briefly, inducible HEK hERG cells were cultivated in minimum essential medium supplemented with 10% FBS, 1% non-essential amino acids, 1% sodium pyruvate, 2 mM 1-glutamine, 15 μg/mL blasticidin, and 100 μg/mL hygromycin. hERG channel expression induction was obtained by adding 10 μg/mL tetracycline for 24, 48, or 72 h before recordings.
On the day of the experiment, cells were detached with TrypLE and prepared to be loaded on the instrument. Cells were resuspended in 7 mL of Serum-Free Media containing 25 mM Hepes and soybean trypsin inhibitor and immediately placed in the cell storage tank of the machine. The composition of the extracellular buffer was (mM): NaCl 137, KCl 4, CaCl2 1.8, MgCl2 1.0, d-glucose 10, N-2-hydroxyethylpiperazine-N′-2-ethanesulfonic acid (HEPES) 10, pH 7.4 with 1 M NaOH. The composition of the intracellular solution was (mM): KCl 130, MgCl2 1.0, ethylene glycol-bis(β-aminoethyl ether)-N,N,N′,N′-tetraacetic acid (EGTA) 5, MgATP 5, HEPES 10, pH 7.2 with 1 M KOH. The voltage protocol included the following steps: step from −80 to −50 mV for 200 ms, +20 mV for 4.8 s, step to −50 mV for 5 s, then step to the holding potential of −80 mV. Compounds were dissolved in DMSO and diluted in extracellular buffer to achieve final test concentrations (0.3, 3, and 30 μM) in 0.3% DMSO. The voltage protocol was run and recorded continuously during the experiment. The vehicle, corresponding to 0.3% DMSO in extracellular buffer was then applied for 3 min, followed by the test substance in triplicate. The standard combined exposure time was 5 min. The average of tail current amplitude values recorded from four sequential voltage pulses was used to calculate for each cell the effect of the test substance by calculating the residual current (% control) compared with vehicle pretreatment. Data were reported as % inhibition for each concentration tested, and IC50 values were estimated using QPatch software. At least two cells were tested, and even more if results diverged.

Experiment [2] relates to ATF4. Put plainly: HEK-ATF4 High Content Imaging assay (prevention of Tunicamycin induced ISR; ATF4 signal ratio between nucleus and cytoplasm). The experiment is classed as cell-based. The following applies: Homo sapiens; Wild-type HEK293 cells, Tunicamycin induced ISR, 6 h; read-out: IIEK-ATF4 Activity. A digest of the protocol: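 Wild-type HEK293 cells in 0.3% FBS medium were co-treated with compounds and Tunicamycin (3.3 μM in prediluted medium, 11-fold over final) for 6 h at 37 °C. Fixed cells were immunostained for ATF4 with Hoechst nuclei; imaging gave nuclear/cytoplasmic ATF4 ratio, with nuclei counts as toxicity control.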

Each structure is given as a SMILES string.

T1 sequence (Q12809 whole entry): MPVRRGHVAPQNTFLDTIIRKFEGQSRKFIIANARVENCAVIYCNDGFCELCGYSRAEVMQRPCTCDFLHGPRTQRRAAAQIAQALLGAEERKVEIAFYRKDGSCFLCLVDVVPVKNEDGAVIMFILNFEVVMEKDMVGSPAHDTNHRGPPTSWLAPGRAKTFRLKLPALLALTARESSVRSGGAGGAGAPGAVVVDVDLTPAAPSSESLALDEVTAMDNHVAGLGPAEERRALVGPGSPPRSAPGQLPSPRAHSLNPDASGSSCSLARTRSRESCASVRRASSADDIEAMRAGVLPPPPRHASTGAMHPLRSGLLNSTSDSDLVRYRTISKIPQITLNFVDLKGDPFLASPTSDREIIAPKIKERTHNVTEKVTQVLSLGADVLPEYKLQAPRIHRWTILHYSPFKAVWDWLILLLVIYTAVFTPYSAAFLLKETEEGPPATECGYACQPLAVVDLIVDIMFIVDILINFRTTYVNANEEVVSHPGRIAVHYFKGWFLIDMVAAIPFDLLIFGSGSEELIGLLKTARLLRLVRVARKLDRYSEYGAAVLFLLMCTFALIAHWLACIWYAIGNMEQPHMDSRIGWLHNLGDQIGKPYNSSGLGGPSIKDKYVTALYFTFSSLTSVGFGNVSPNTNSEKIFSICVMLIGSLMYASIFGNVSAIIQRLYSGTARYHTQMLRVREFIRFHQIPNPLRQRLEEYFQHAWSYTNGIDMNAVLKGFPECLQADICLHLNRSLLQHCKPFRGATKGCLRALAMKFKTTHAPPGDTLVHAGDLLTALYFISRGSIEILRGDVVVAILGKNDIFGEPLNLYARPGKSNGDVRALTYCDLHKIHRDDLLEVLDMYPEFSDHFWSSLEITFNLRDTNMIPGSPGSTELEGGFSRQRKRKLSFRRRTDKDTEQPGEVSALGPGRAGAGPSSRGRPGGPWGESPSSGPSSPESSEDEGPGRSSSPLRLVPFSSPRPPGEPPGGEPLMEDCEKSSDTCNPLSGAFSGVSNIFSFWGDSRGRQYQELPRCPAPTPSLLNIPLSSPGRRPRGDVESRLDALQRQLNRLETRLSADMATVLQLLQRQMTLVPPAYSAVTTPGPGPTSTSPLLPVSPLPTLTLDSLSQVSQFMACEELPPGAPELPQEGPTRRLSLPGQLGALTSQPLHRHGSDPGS

Consider `O=C(COc1ccc(Cl)c(F)c1)N[C@H]1CC[C@H](c2nnc(OCCOC3CCC3)o2)NC1` [Example 82, 2-(4-chloro-3-fluorophenoxy)-N-[(3S,6R)-6-[5-(2-cyclobutoxyethoxy)-1,3,4-oxadiazol-2-yl]piperidin-3-yl]acetamide], for which the IC50 in experiment [1] is above 5000 nM; in experiment [2], 1 to 500 nM.
For the compound `O=C(COc1ccc(Cl)c(F)c1)N[C@H]1CC[C@H](c2nnc(OCCC3CC3)o2)NC1` [Example 69, 2-(4-chloro-3-fluorophenoxy)-N-[(3S,6R)-6-[5-(2-cyclopropylethoxy)-1,3,4-oxadiazol-2-yl]piperidin-3-yl]acetamide], the IC50 was 1 to 1000 nM in experiment [1] and 1 to 500 nM in experiment [2].
With `CC(C)(C)OC(=O)N1C[C@@H](NC(=O)COc2ccc(Cl)c(F)c2)CC[C@@H]1c1nnc(OCCOC(F)(F)F)o1` [Example 76, tert-butyl (2R,5S)-5-[2-(4-chloro-3-fluorophenoxy)acetamido]-2-{5-[2-(trifluoromethoxy)ethoxy]-1,3,4-oxadiazol-2-yl}piperidine-1-carboxylate], the IC50 was above 5000 nM in experiment [1] and 500 to 2000 nM in experiment [2].
As for `O=C(COc1ccc(Cl)c(F)c1)N[C@H]1CC[C@H](c2nnc(-c3ccc(Cl)cn3)o2)NC1` [Example 53, 2-(4-chloro-3-fluorophenoxy)-N-[(3S,6R)-6-[5-(5-chloropyridin-2-yl)-1,3,4-oxadiazol-2-yl]piperidin-3-yl]acetamide], the figures for the IC50 in experiment [1] and in experiment [2] were 1000 to 5000 nM and 1 to 500 nM, respectively.
For `O=C(COc1ccc(Cl)c(F)c1)N[C@H]1CC[C@H](c2nnc(OCCOC3CC3(F)F)o2)NC1` (stereo partly drawn) [Example 87, 2-(4-chloro-3-fluorophenoxy)-N-[(3S,6R)-6-{5-[2-(2,2-difluorocyclopropoxy)ethoxy]-1,3,4-oxadiazol-2-yl}piperidin-3-yl]acetamide] the same measures were 1000 to 5000 nM and 1 to 500 nM.
Take `O=C(COc1ccc(Cl)c(F)c1)N[C@@H]1CC[C@@H](c2nnc(OCCC(F)(F)F)o2)NC1` [Example 42, 2-(4-chloro-3-fluorophenoxy)-N-[(3R,6S)-6-[5-(3,3,3-trifluoropropoxy)-1,3,4-oxadiazol-2-yl]piperidin-3-yl]acetamide]: the results for the IC50 in experiment [1] and in experiment [2] were 1000 to 5000 nM and 1 to 500 nM, respectively.
On to `O=C(COc1ccc(Cl)c(F)c1)N[C@@H]1CC[C@H](c2nnc([C@H]3C[C@@H](OC(F)(F)F)C3)o2)NC1=O` (racemic) [Example 38, rac-2-(4-chloro-3-fluorophenoxy)-N-[(3R,6R)-2-oxo-6-{5-[(1s,3s)-3-(trifluoromethoxy)cyclobutyl]-1,3,4-oxadiazol-2-yl}piperidin-3-yl]acetamide], for which the values for the IC50 in experiment [1] and in experiment [2] were above 5000 nM and 2000 to 15000 nM, respectively.
Regarding `CC(F)(F)CCOc1nnc([C@H]2CC[C@H](NC(=O)COc3ccc(Cl)c(F)c3)CN2)o1` [Example 65, 2-(4-chloro-3-fluorophenoxy)-N-[(3S,6R)-6-[5-(3,3-difluorobutoxy)-1,3,4-oxadiazol-2-yl]piperidin-3-yl]acetamide], the values for the IC50 in experiment [1] and in experiment [2] were 1000 to 5000 nM and 500 to 2000 nM, respectively.
In the case of `O=C(COc1ccc(Cl)c(Cl)c1)N[C@H]1CC[C@H](c2nnc([C@H]3C[C@@H](OC(F)(F)F)C3)o2)NC1` [Example 9, 2-(3,4-dichlorophenoxy)-N-[(3S,6R)-6-{5-[(1s,3s)-3-(trifluoromethoxy)cyclobutyl]-1,3,4-oxadiazol-2-yl}piperidin-3-yl]acetamide], the IC50 in experiment [1] lay within 1000 to 5000 nM; in experiment [2] it was 1 to 500 nM.
`CCOCCOc1nnc([C@H]2CC[C@H](NC(=O)COc3ccc(Cl)c(F)c3)CN2)o1` [Example 81, 2-(4-chloro-3-fluorophenoxy)-N-[(3S,6R)-6-[5-(2-ethoxyethoxy)-1,3,4-oxadiazol-2-yl]piperidin-3-yl]acctamide]: the results for the IC50 in experiment [1] and in experiment [2] were above 5000 nM and 500 to 2000 nM, respectively.
As for `CC(CC(F)(F)F)Oc1nnc([C@H]2CC[C@H](NC(=O)COc3ccc(Cl)c(F)c3)CN2)o1` (stereo partly drawn) [Example 64, 2-(4-chloro-3-fluorophenoxy)-N-[(3S,6R)-6-{5-[(4,4,4-trifluorobutan-2-yl)oxy]-1,3,4-oxadiazol-2-yl}piperidin-3-yl]acetamide], the IC50 in experiment [1] was above 5000 nM; in experiment [2] it was 2000 to 15000 nM.
As for `CC1(OC(F)(F)F)CN(c2nnc([C@H]3CC[C@H](NC(=O)COc4ccc(Cl)c(F)c4)CN3)o2)C1` [Example 93, 2-(4-chloro-3-fluorophenoxy)-N-[(3S,6R)-6-{5-[3-methyl-3-(trifluoromethoxy)azetidin-1-yl]-1,3,4-oxadiazol-2-yl}piperidin-3-yl]acetamide], the IC50 in experiment [1] is above 5000 nM; in experiment [2], 500 to 2000 nM.
`O=C(COc1cnc(Cl)c(F)c1)N[C@H]1CC[C@H](c2nnc(-c3ccc(Cl)c(Cl)c3)o2)NC1` [Example 100, 2-[(6-chloro-5-fluoropyridin-3-yl)oxy]-N-[(3S,6R)-6-[5-(3,4-dichlorophenyl)-1,3,4-oxadiazol-2-yl]piperidin-3-yl]acetamide]: the figures for the IC50 in experiment [1] and in experiment [2] were 1000 to 5000 nM and 1 to 500 nM, respectively.
Take `O=C(COc1ccc(Cl)c(F)c1)N[C@H]1CC[C@H](c2nnc(-c3ccc(Cl)cc3)o2)NC1` [Example 40, 2-(4-chloro-3-fluorophenoxy)-N-[(3S,6R)-6-[5-(4-chlorophenyl)-1,3,4-oxadiazol-2-yl]piperidin-3-yl]acetamide]: the values for the IC50 in experiment [1] and in experiment [2] were 1 to 1000 nM and 1 to 500 nM, respectively.
Regarding `O=C(COc1ccc(Cl)c(F)c1)N[C@H]1CC[C@H](c2nnc(C3CC(OC4CC4)C3)o2)NC1` (stereo partly drawn) [Example 59, 2-(4-chloro-3-fluorophenoxy)-N-[(3S,6R)-6-[5-(3-cyclopropoxycyclobutyl)-1,3,4-oxadiazol-2-yl]piperidin-3-yl]acetamide], the IC50 in experiment [1] was above 5000 nM; in experiment [2], 500 to 2000 nM.
In the case of `O=C(COc1ccc(Cl)c(F)c1)N[C@H]1CC[C@H](c2nnc(OCC3CC3(F)F)o2)NC1` (stereo partly drawn) [Example 66, 2-(4-chloro-3-fluorophenoxy)-N-[(3S,6R)-6-{5-[(2,2-difluorocyclopropyl)methoxy]-1,3,4-oxadiazol-2-yl}piperidin-3-yl]acetamide], the IC50 in experiment [1] is 1000 to 5000 nM; in experiment [2], 500 to 2000 nM.
On the same counts, the results for `COCCCOc1nnc([C@H]2CC[C@H](NC(=O)COc3ccc(Cl)c(F)c3)CN2)o1` [Example 79, 2-(4-chloro-3-fluorophenoxy)-N-[(3S,6R)-6-[5-(3-methoxypropoxy)-1,3,4-oxadiazol-2-yl]piperidin-3-yl]acetamide] are above 5000 nM and 2000 to 15000 nM.
For `O=C(COc1ccc(Cl)c(F)c1)N[C@@H]1CC[C@@H](c2nnc(N3CC(OC(F)(F)F)C3)o2)NC1` [Example 43] the same measures were above 5000 nM and 1 to 500 nM.
For `O=C(COc1ccc(Cl)c(Cl)c1)N[C@H]1CC[C@H](c2nnc(OCCOC3CC3)o2)NC1` [Example 86, N-[(3S,6R)-6-[5-(2-cyclopropoxyethoxy)-1,3,4-oxadiazol-2-yl]piperidin-3-yl]-2-(3,4-dichlorophenoxy)acetamide], the IC50 was 1000 to 5000 nM in experiment [1] and 1 to 500 nM in experiment [2].
On the same counts, the results for `O=C(COc1ccc(Cl)c(F)c1)N[C@H]1CC[C@H](c2nnc(CCCOC(F)(F)F)o2)NC1` [Example 55, 2-(4-chloro-3-fluorophenoxy)-N-[(3S,6R)-6-{5-[3-(trifluoromethoxy)propyl]-1,3,4-oxadiazol-2-yl}piperidin-3-yl]acetamide] are above 5000 nM and 1 to 500 nM.
For `O=C(COc1ccc(C(F)F)c(Cl)c1)N[C@H]1CC[C@H](c2nnc(OCCOC(F)(F)F)o2)NC1` [Example 113, 2-[3-chloro-4-(difluoromethyl)phenoxy]-N-[(3S,6R)-6-{5-[2-(trifluoromethoxy)ethoxy]-1,3,4-oxadiazol-2-yl}piperidin-3-yl]acetamide] the same measures were 1000 to 5000 nM and 1 to 500 nM.
